Data published in ChEMBL document CHEMBL5055655, “Design, synthesis and bioactivity evaluation of fisetin derivatives as potential anti-inflammatory agents against LPS-induced acute lung injury” (Bioorg Med Chem, 2021).
The source made the active and inactive calls. The calls are words filed in the database; no cut-off is given here.

Key:
J774.A1 [1] = test: Cytotoxicity against mouse J774A.1 cells assessed as reduction in cell viability at 10 uM after 24 hrs by MTT assay; type: cell-based; conditions: j774.a1, 24 h
J774.A1 [2] = test: Antiinflammatory activity in mouse J774.A1 cells assessed as inhibition of LPS-induced TNF-alpha secretion at 10 uM incubated for 2 followed by LPS stimulation and measured after 22 hrs by ELISA relative to control; type: functional; conditions: for Activity: time 24.0 hrs
J774.A1 [3] = test: Antiinflammatory activity in mouse J774.A1 cells assessed as inhibition of LPS-induced IL6 secretion at 10 uM incubated for 2 followed by LPS stimulation and measured after 22 hrs by ELISA relative to control; type: functional; conditions: for Activity: time 24.0 hrs
Mus musculus [4] = test: Anti-inflammatory activity against C57BL/6 mouse model of LPS-induced acute lung injury assessed as reduction in cell count in broncho alveolar lavage fluid at 20 mg/kg, IG treated 0.5 hrs before LPS stimulation by ELISA; type: functional, organism-based
Mus musculus [5] = test: Anti-inflammatory activity against C57BL/6 mouse model of LPS-induced acute lung injury assessed as reduction in IL6 secretion in broncho alveolar lavage fluid at 20 mg/kg, IG treated 0.5 hrs before LPS stimulation by ELISA; type: functional, organism-based
Mus musculus [6] = test: Antiinflammatory activity against C57BL/6 mouse model of LPS-induced acute lung injury assessed as reduction in pulmonary congestion at 20 mg/kg, IG treated 0.5 hrs before LPS challenge by H and E staining based histopathological analysis; type: functional, organism-based
Mus musculus [7] = test: Antiinflammatory activity against C57BL/6 mouse model of LPS-induced acute lung injury assessed as reduction in inflammatory infiltration at 20 mg/kg, IG treated 0.5 hrs before LPS challenge by H and E staining based histopathological analysis; type: functional, organism-based
J774.A1 [8] = test: Antiinflammatory activity in mouse J774.A1 cells assessed as inhibition of LPS-induced IL6 secretion incubated for 2 followed by LPS stimulation and measured after 22 hrs by ELISA; type: functional, cell-based
Mus musculus [9] = test: Antiinflammatory activity in C57BL/6 mouse model of LPS-induced acute lung injury assessed as reduction in lung wet/dry ratio at 20 mg/kg, IG administered 30 mins prior to LPS instillation; type: functional, organism-based
Mus musculus [10] = test: Anti-inflammatory activity against C57BL/6 mouse model of LPS-induced acute lung injury assessed as reduction in TNF-alpha secretion in broncho alveolar lavage fluid at 20 mg/kg, IG treated 0.5 hrs before LPS stimulation by ELISA; type: functional, organism-based
J774.A1 [11] = test: Antiinflammatory activity in mouse J774.A1 cells assessed as inhibition of LPS-induced TNF-alpha secretion incubated for 2 followed by LPS stimulation and measured after 22 hrs by ELISA; type: functional, cell-based
Mus musculus [12] = test: Antiinflammatory activity against C57BL/6 mouse model of LPS-induced acute lung injury assessed as reduction in alveolar septa thickening at 20 mg/kg, IG treated 0.5 hrs before LPS challenge by H and E staining based histopathological analysis; type: functional, organism-based
Mus musculus [13] = test: Antiinflammatory activity against C57BL/6 mouse model of LPS-induced acute lung injury assessed as reduction in lung tissue destruction at 20 mg/kg, IG treated 0.5 hrs before LPS challenge by H and E staining based histopathological analysis; type: functional, organism-based
Mus musculus [14] = test: Antiinflammatory activity against C57BL/6 mouse model of LPS-induced acute lung injury assessed as reduction in interstitial edema in lung tissue at 20 mg/kg, IG treated 0.5 hrs before LPS challenge by H and E staining based histopathological analysis; type: functional, organism-based

SMILES | Activity (J774.A1 [1]) | Activity (J774.A1 [2]) | Activity (J774.A1 [3]) | further results
O=c1c(O)c(-c2ccc(O)c(O)c2)oc2ccc(F)cc12 | Non-Toxic | Active | Active | 
O=C(/C=C/c1ccc(O)c(O)c1)c1cc(Br)ccc1O | Non-Toxic | Active | Active | 
O=c1c(O)c(-c2ccc(O)c(O)c2)oc2cc(F)ccc12 | Non-Toxic | Active | Active | 
O=C(/C=C/c1ccc(O)c(O)c1)c1ccc(OCCCN2CCCC2)cc1O | Non-Toxic | Active | Active | 
O=C(/C=C/c1ccc(O)c(O)c1)c1cc(OCCCN2CCCCC2)ccc1O | Non-Toxic | Active | Active | 
O=C(/C=C/c1ccc(O)c(O)c1)c1ccc(OCCCN2CCCCC2)cc1O | Non-Toxic | Active | Active | 
O=C(/C=C/c1ccc(O)c(O)c1)c1ccc(OCCN2CCCC2)cc1O | Non-Toxic | Active | Active | 
CN(C)CCCOc1ccc(C(=O)/C=C/c2ccc(O)c(O)c2)c(O)c1 | Non-Toxic |  |  | Activity (Mus musculus [4]): Active; Activity (Mus musculus [5]): Active; Activity (Mus musculus [6]): Active; Activity (Mus musculus [7]): Active; IC50 (J774.A1 [8]; J774.A1, 22 h): 8.25 µM; inhibition (J774.A1 [8]; time 24.0 hrs): Dose-dependent effect; Activity (Mus musculus [9]): Active; Activity (Mus musculus [10]): Active; inhibition at 10 µM (J774.A1 [2]; time 24 hrs): 76.4%; IC50 (J774.A1 [11]; J774.A1, 22 h): 2.58 µM; inhibition (J774.A1 [11]; time 24.0 hrs): Dose-dependent effect; Activity (Mus musculus [12]): Active; Activity (Mus musculus [13]): Active; inhibition at 10 µM (J774.A1 [3]; time 24 hrs): 89.6%; Activity (Mus musculus [14]): Active
O=C(/C=C/c1ccc(O)c(O)c1)c1cc(OCCCN2CCOCC2)ccc1O | Non-Toxic | Active | Active | 
O=C(/C=C/c1ccc(O)c(O)c1)c1cc(F)ccc1O | Non-Toxic | Active | Active | 
O=C(/C=C/c1ccc(O)c(O)c1)c1cc(OCCCN2CCCC2)ccc1O | Non-Toxic | Active | Active | 
O=C(/C=C/c1ccc(O)c(O)c1)c1cc(OCCN2CCOCC2)ccc1O | Non-Toxic | Active | Active | 
O=C(/C=C/c1ccc(O)c(O)c1)c1ccc(Br)cc1O | Non-Toxic | Active | Active | 
COc1ccc(C(=O)/C=C/c2ccc(O)c(O)c2)c(O)c1 [CALYTHROPSIN] | Non-Toxic | Active | Active | 
O=C(/C=C/c1ccc(O)c(O)c1)c1ccc(OCCN2CCOCC2)cc1O | Non-Toxic | Active | Active | 
O=c1c(O)c(-c2ccc(O)c(O)c2)oc2ccc(Br)cc12 | Non-Toxic | Active | Active | 
O=C(/C=C/c1ccc(O)c(O)c1)c1cc(OCCN2CCCC2)ccc1O | Non-Toxic | Active | Active | 
COc1cc(O)c(C(=O)/C=C/c2ccc(O)c(O)c2)cc1OC | Non-Toxic | Active | Active | 
O=C(/C=C/c1ccc(O)c(O)c1)c1ccc(OCCCN2CCOCC2)cc1O | Non-Toxic | Active | Active | 
COc1ccc2c(=O)c(O)c(-c3ccc(O)c(O)c3)oc2c1 | Non-Toxic | Active | Active | 
O=C(/C=C/c1ccc(O)c(O)c1)c1ccc([N+](=O)[O-])cc1O | Non-Toxic | Active | Active | 
CN1CCN(CCCOc2ccc(O)c(C(=O)/C=C/c3ccc(O)c(O)c3)c2)CC1 | Non-Toxic | Active | Active | 
CN(C)CCCOc1ccc(O)c(C(=O)/C=C/c2ccc(O)c(O)c2)c1 | Non-Toxic | Active | Active | 
O=c1c(O)c(-c2ccc(O)c(O)c2)oc2cc(Br)ccc12 | Non-Toxic | Active | Active | 
O=C(/C=C/c1ccc(O)c(O)c1)c1ccc(F)cc1O | Non-Toxic | Active | Active | 
O=c1c(O)c(-c2ccc(O)c(O)c2)oc2cc(O)ccc12 [FISETIN] | Non-Toxic | Active | Active | Activity (Mus musculus [4]): Active
